Measured values as given in patent US6579882B2, “Cell adhesion-inhibiting antiinflammatory compounds” (Abbott Laboratories, priority 1998, dated 2003).

How the values were obtained:
VCAM-1 = assay: CAM ELISA: VCAM-1 expression on TNF-stimulated HUVECs; assay type: cell-based; conditions: 1 μM compound, primary human umbilical vein endothelial cells, compound 24 hours, then TNF 5 ng/mL 6 hours; for inhibition at 1 µM: Homo sapiens, Endothelial cell
Method: (§1) Pooled primary human umbilical vein endothelial cells (HtVEC's) (Clonetics) between passages 3 and 7 were plated in 96-well plates (Costar), 100 μL/well, 5×10^4 cells/mL in Clonetics EBM/2% FBS/EGF/Bovine brain extract/gentamicin in the absence of hydrocortisone. The following day, compounds of the invention were added in 10 μL/well medium, and the plates were incubated at 37° C. 24 hours after compound addition, TNF (Gibco/BRL) in 10 μL/well medium was added to a final concentration of 5 ng/mL, and the cells were incubated an additional 6 hours at 37° C. Then media was removed, and the plates were washed once with D-PBS (Gibco/BRL) and treated with primary antibodies (Becton Dickinson, City), 100 μL/well in D-PBS/2% BSA (Sigma)/0.01% azide. Primary antibodies at an initial concentration of 1 mg/mL were used at the following dilutions: anti-ELAM-1, 1:2000, anti-ICAM-1, 1:2000 and anti-VACM-1, 1:3000. Plates were stored overnight at 4° C., washed 3 times with D-PBS, and treated with secondary antibody (Jackson Labs), 100 μL/well 1:8000 dilution HRP-conjugated donkey anti-mouse IgG(H+L) in D-PBS/2%BSA. Plates were incubated a minimum of 1 hour at room temperature, washed 3 times with D-PBS and treated with 100 μL of orhto-phenylene diamine-2 HCl reagent per well. Plates were developed approximately 15 minutes and neutralized with 100 μL/well 1N sulfuric acid. Absorbance was read at 490 nm.

E-Selectin = assay: CAM ELISA: E-selectin expression on TNF-stimulated HUVECs; assay type: cell-based; conditions: 1 μM compound, primary human umbilical vein endothelial cells, compound 24 hours, then TNF 5 ng/mL 6 hours; for inhibition at 1 µM: Homo sapiens, Endothelial cell
Method: as §1

ICAM-1 = assay: CAM ELISA: ICAM-1 expression on TNF-stimulated HUVECs; assay type: cell-based; conditions: 1 μM compound, primary human umbilical vein endothelial cells, compound 24 hours, then TNF 5 ng/mL 6 hours; for inhibition at 1 µM: Homo sapiens, Endothelial cell
Method: as §1

melting point | SMILES | inhibition at 1 µM (VCAM-1) | inhibition at 1 µM (E-Selectin) | inhibition at 1 µM (ICAM-1) | CAM ELISA % Inhibition at 1 μM VCAM-1 (VCAM-1) | CAM ELISA % Inhibition at 1 μM E-Selectin (E-Selectin) | CAM ELISA % Inhibition at 1 μM ICAM-1 (ICAM-1)
243 to 246 °C | Cc1ccc(Sc2ncnc3c(C)c(C(N)=O)sc23)cc1 [Example 16, 7-methyl-4-[(4-methylphenyl)thio]thieno[3,2-d]pyrimidine-6-carboxamide] | 19% | 35% | 32% | – | – | –
239 to 242 °C | NC(=O)c1cc2c(Sc3ccccn3)cncc2s1 [Example 20, 4-(2-pyridinylthio)thieno[2,3-c]pyridine-2-carboxamide] | 26% | 55% | 46% | – | – | –
198 to 199 °C | NC(=O)c1cc2c(SCc3ccc(Cl)cc3)cncc2s1 [Example 54, 4-[[(4-chlorophenyl)methyl]thio]thieno[2,3-c]pyridine-2-carboxamide] | 33% | 74% | 59% | – | – | –
90 to 91 °C | OCc1cc2c(Oc3ccc(Cl)cc3)cncc2s1 [Example 90, 4-(4-chlorophenoxy)thieno[2,3-c]pyridine-2-methanol] | 27% | 47% | 51% | – | – | –
146 to 147 °C | NNC(=O)c1cc2c(Oc3ccc(C(F)(F)F)cc3)cncc2s1 [Example 158, 4-[4-(Trifluoromethyl)phenoxy]thieno[2,3-c]pyridine-2-carbohydrazide] | 26% | 61% | 65% | – | – | –
113 to 114 °C | CCOCCOCCOCC1(c2ccc(Oc3cncc4sc(-c5nnc(N)o5)cc34)cc2)CC1 [Example 228, 5-{4-[4-(1-{[2-(2-Ethoxyethoxy)ethoxy]methyl}cyclopropyl)phenoxy]thieno[2,3-c]pyridin-2-yl}-1,3,4-oxadiazol-2-amine] | 54% | 70% | 68% | 52% | 67% | 64%
194 to 196 °C | NC(=NO)c1cc2c(Oc3ccc(Cl)cc3)cncc2s1 [Example 249, 4-(4-Chlorophenoxy)-N′-hydroxythieno[2,3-c]pyridine-2-carboximidamide] | 61% | 75% | 69% | – | – | –
195 to 196 °C | NC(=O)/C=C/c1cc2c(Oc3ccc(Br)cc3)cncc2s1 [Example 259, (E)-3-[4-(4-Bromophenoxy)thieno[2,3-c]pyridin-2-yl]propenamide] | 57% | 63% | 59% | – | – | –
208 to 210 °C | Nc1ccc(-c2cc3c(Oc4ccc(Cl)cc4)cncc3s2)cn1 [Example 274, 5-[4-(4-Chlorophenoxy)thieno[2,3-c]pyridin-2-yl]-2-pyridinamine] | 44% | 65% | 71% | – | – | –
120 to 121 °C | Cc1nc(-c2cc3c(Oc4ccc(Cl)cc4)cncc3s2)no1 [Example 279, 4-(4-Chlorophenoxy)-2-(5-methyl-1,2,4-oxadiazol-3-yl)thieno[2,3-c]pyridine] | 24% | 30% | 40% | – | – | –
– | CSc1nnc(-c2cc3c(Oc4ccc(Cl)cc4)cncc3s2)o1 [Example 281] | – | – | – | 20% | 18% | 25%
– | Clc1ccc(Oc2cncc3sc(-c4nnn[nH]4)cc23)cc1 [Example 282A, 4-(4-Chlorophenoxy)-2-(1,2,3,4-tetrazol-5-yl)thieno[2,3-c]pyridine] | 5% | 8% | 15% | – | – | –
233 to 235 °C | Cn1c(N)nnc1-c1cc2c(Oc3ccc(Cl)cc3)cncc2s1 [Example 283, 5-[4-(4-Chlorophenoxy)thieno[2,3-c]pyridin-2-yl]-4-methyl-4H-1,2,4-triazol-3-amine] | 52% | 39% | 57% | – | – | –
52 to 54 °C | FC(F)(F)c1nc(-c2cc3c(Oc4ccc(Cl)cc4)cncc3s2)no1 [Example 284, 4-(4-Chlorophenoxy)-2-[5-(trifluoromethyl)-1,2,4-oxadiazol-3-yl]thieno[2,3-c]pyridine] | 45% | 56% | 68% | – | – | –
217 to 219 °C | Nc1noc(-c2cc3c(Oc4ccc(Cl)cc4)cncc3s2)n1 [Example 285, 5-[4-(4-Chlorophenoxy)thieno[2,3-c]pyridin-2-yl]-1,2,4-oxadiazol-3-amine] | 50% | 56% | 65% | – | – | –
226 to 229 °C | CNc1nnc(-c2cc3c(Oc4ccc(Cl)cc4)cncc3s2)s1 [Example 286, 5-[4-(4-Chlorophenoxy)thieno[2,3-c]pyridin-2-yl]-N-methyl-1,3,4-thiadiazol-2-amine] | 46% | 54% | 64% | – | – | –
– | Clc1ccc(Oc2cncc3sc(-c4ncon4)cc23)cc1 [Example 287, 4-(4-Chlorophenoxy)-2-(1,2,4-oxadiazol-3-yl)thieno[2,3-c]pyridine] | 27% | 49% | 49% | – | – | –
– | Nc1nc(-c2cc3c(Oc4ccc(Cl)cc4)cncc3s2)no1 [Example 289, 3-[4-(4-Chlorophenoxy)thieno[2,3-c]pyridin-2-yl]-1,2,4-oxadiazol-5-amine] | 52% | 64% | 62% | – | – | –
– | Cc1nnc(-c2cc3c(Oc4ccc(C(F)(F)F)cc4)cncc3s2)o1 [Example 290, 2-(5-Methyl-1,3,4-oxadiazol-2-yl)-4-[4-(trifluoromethyl)phenoxy]thieno[2,3-c]pyridine] | 48% | 42% | 53% | – | – | –
– | CC(C)(C)OC(=O)Nc1csc(-c2cc3c(Oc4ccc(Cl)cc4)cncc3s2)n1 [Example 294, tert-Butyl 2-[4-(4-Chlorophenoxy)thieno[2,3-c]pyridin-2-yl]-1,3-thiazol-4-ylcarbamate] | 24% | 46% | 45% | – | – | –
168 to 170 °C (dec.) | Nc1csc(-c2cc3c(Oc4ccc(Cl)cc4)cncc3s2)n1 [Example 295, 2-[4-(4-Chlorophenoxy)thieno[2,3-c]pyridin-2-yl]-1,3-thiazol-4-amine] | 44% | 59% | 56% | – | – | –
– | NC(=O)c1sc2cncc(Cl)c2c1N [Example 301, 3-Amino-4-chlorothieno[2,3-c]pyridine-2-carboxamide] | 34% | 44% | 48% | – | – | –
– | CNC(=O)c1sc2cncc(Oc3ccc(Cl)cc3)c2c1C [Example 303, 4-(4-Chlorophenoxy)-N, 3-dimethylthieno[2,3-c]pyridine-2-carboxamide] | 33% | 65% | 66% | – | – | –
– | NC(=O)c1cc2c(Oc3ccc(Cl)cc3)cnc(Cl)c2s1 [Example 311, 7-Chloro-4-(4-chlorophenoxy)thieno[2,3-c]pyridine-2-carboxamide] | 36% | 72% | 77% | – | – | –
– | CNC(=O)c1cc2c(Oc3ccc(Cl)cc3)cnc(Cl)c2s1 [Example 312, 7-Chloro-4-(4-chlorophenoxy)-N-methylthieno[2,3-c]pyridine-2-carboxamide] | 42% | 64% | 76% | – | – | –
– | NC(=O)c1cc2c(Oc3ccc(Br)cc3)cnc(Cl)c2s1 [Example 316, 4-(4-Bromophenoxy)-7-chlorothieno[2,3-c]pyridine-2-carboxamide] | 42% | 76% | 68% | – | – | –
– | O=C(NCCO)c1cc2c(Oc3ccc(C(F)(F)F)cc3)cnc(Cl)c2s1 [Example 320] | – | – | – | 55% | 64% | 67%
– | CNC(=O)c1nc2cncc(Oc3ccc(C)cc3)c2s1 [Example 325] | – | – | – | 42% | 76% | 68%
– | NC(=O)c1cc2c(C=Cc3ccccc3)cncc2s1 [Example 329, 4-(2-Phenylethenyl)thieno[2,3-c]pyridine-2-carboxamide] | 64% | 72% | 62% | – | – | –
– | NC(=O)c1cc2c(Oc3ccc(Cl)cc3)c(Cl)ncc2s1 [Example 340, 5-Chloro-4-(4-chlorophenoxy)thieno[2,3-c]pyridine-2-carboxamide] | 20% | 18% | 33% | – | – | –
